Results published in publication PMC12070228, “Investigations of Enteric-Coated Tablet Propyl Gallate-Induced Nephrotoxicity in Beagles as well as Human and Dog Renal Proximal Tubule Epithelial Cells” (ACS Pharmacology & Translational Science, 2025).

How the values were obtained:
[1] = no reference given; cited from earlier work
dog RPTECs = assay: GSH-Glo glutathione assay; assay type: cell-based; conditions: ~48 h, high concentrations
Method: (§1) Frozen RPTECs vials were removed from liquid nitrogen storage and placed in a 37 °C water bath until the contents were completely thawed. The cells were gently resuspended and dispensed into a cell culture flask at a seeding density of ∼7500 cells/cm^2. The flask was placed in a 37 °C, 5% CO2 incubator. Cell cultures were given fresh medium the following morning and then every other day until the cell culture was approximately 90% confluent. When the cell culture was 90% confluent, medium was removed and the cells were rinsed with warmed PBS. Cells were harvested and split into new flasks based on a cell density of 7500 cells/cm^2. Cells were incubated at 37 °C for 3 days, with fresh medium added each day. Cells were harvested and diluted with growth medium to a density of 200,000 cells/mL. 100 μL of cell suspension per well (20,000 cells/well) was added to a clear-bottom 96-well microplate for luminescence assays. The plated cells were incubated in the 37 °C incubator for 3 days.
(§2) Each test compound (PG, GA, 4OMPG and 4OMGA) was initially reconstituted using DMSO at a concentration of 250 mg/mL. Serial dilutions of each compound were performed to reach concentrations of 4000 μM, 2000 μM, 1000 μM, 500 μM, 250 μM, 125 μM, 62.5 μM, 31.3 μM using warmed fresh supplemented medium with 0.4% (v/v) DMSO for all concentration levels. 100 μL of media containing the compound solution was added to the cells. Final concentrations of the compounds were 2000 μM, 1000 μM, 500 μM, 250 μM, 125 μM, 62.5 μM, 31.3 μM, 15.7 μM. AZ13599185 (tubulysin, 100 or 500 ng/mL) or cisplatin (30 μg/mL) and buthionine sulfoximine (BSO, 200 μM) were used as positive controls for CTG and GSH assays, respectively. 0.2% (v/v) DMSO in medium was used as the control for both assays, corrsponding to the final cocnetration of DMSO in the well. Three replicates for each compound at each concentration were prepared. Six replicates of positive or negative controls were prepared. Cells were incubated at 37 °C for approximately 48 h.
(§3) Cell media were removed and cells were washed twice with 200 μL of PBS buffer per well. CTG and GSH assay reagents were added to the wells and the assays were performed following the protocols of the Promega assay kits. Briefly, to perform the CTG assay, 100 μL of CTG solution was added into each well. The plate was gently shaken and incubated in the dark for 30 min and luminescence was measured using a PerkinElmer VICTOR X3 plate reader. To perform the GSH assay, luciferin-NT substrate and glutathione S-transferase were mixed into the GSH-GLo solution. 100 μL of the mixed solution was added into each well. The plate was gently shaken and incubated in the dark for at least 30 min. 100 μL of Luciferin Detection Reagent was added per well. The plate was gently shaken and incubated in the dark for at least 15 min. Luminescence was measured using a PerkinElmer VICTOR X3 plate reader.
(§4) For cell-based assays, data was normalized to the negative control. Cell viability and GSH level were expressed as Cell viability or GSH level=Luminescence(each well)/Luminescence(average of DMSO negative control)

human RPTECs = assay: GSH-Glo glutathione assay; assay type: cell-based; conditions: ~48 h, high concentrations
Method: as §1, §2, §3, §4

[2] = Exposure comparison of PG and phase-I and phase-II metabolites in dog and human plasma; conditions: oral EC MEDI7219 tablets; samples through 8 h; human PG 800 mg (N = 8), dog PG 200 mg/kg/day (N = 6)
Method: Dog blood was collected via jugular vein in potassium (K2) EDTA tubes and processed to plasma. Samples were centrifuged at approximately 3000 rpm for 5 min at approximately 4 °C within 30 min of collection. Plasma samples were acidified with 1% (v/v) formic acid (FA) to avoid degradation of PG and metabolites in plasma within 20 min of the start of centrifugation and then stored frozen (≤-60 °C). Acidified plasma was extracted using internal standard-spiked solution (100 mM ammonium bicarbonate: acetonitrile = 1:4). Samples were then centrifuged to collect supernatant, followed by drying to completion. The dried samples were reconstituted with 200 uL of 0.1% (v/v) formic acid in water. Samples were vortexed and centrifuged before injection. In order to assess potential impact of hemolysis on qualification of PG and its metabolites, hemolyzed plasma was prepared by spiking fully hemolyzed whole blood at an indicated percentage into plasma.
Separations were conducted on a reversed-phase column (Phenomenex, Kinetex F5, 2.6 μm 100 Å, 100 × 4.6 mm) at a flow rate of 0.7 mL/min at 40 °C. Mobile phase A was 0.1% formic acid in water and mobile phase B was 0.1% formic acid in methanol. The samples were analyzed on a SCIEX 6500+ QTRAP under negative ESI mode. The total run time was 5.5 min. Eight calibration standards and three quality control (LQC, MQC and HQC) samples were used for quantification.
The primary metabolites of PG were measured in dog and human plasma following oral administration of EC MEDI7219 tablets to examine a potential mechanism of the PG-mediated renal toxicity in dog and its possible translatability to humans. Plasma concentrations of PG, its phase-I metabolites GA and 4OMGA and phase-II glucuronide and glutathione conjugates were measured. The human and dog samples, collected through 8 h after administration, were analyzed and the results were compared (Figure , Figure S5). Based on allometric scaling method the highest daily dose administered in humans was approximately 8-fold less compared with the dose level tested in dogs.
Human (H) data is in black. Dog (D) data is in red (study 002). Concentration (mM) is in log10 scale. Data was normalized to PG dose (mg/kg/day). N = 8 for human (PG dosed at 800 mg with MEDI7219 tablets). N = 6 for dogs (PG dosed at 200 mg/kg/day). Below LLOQ values were set to 1/2 LLOQ for the calculation.

urine NGAL = conditions: dog, in vivo
Method: In the first investigative 4-week study (study 002), dogs received EC tablets consisting of different combinations of the clinical formulation excipients (Table ) with or without PG once daily for 27 days. For groups receiving tablets with PG, each EC tablet contained 100 mg PG; the number of tablets administered each day (13–20 placed in size 12 gelatin capsules) was adjusted based on the most recent body weight to yield a target PG dose level of 200 mg/kg/day. Scheduled necropsies of all surviving animals were conducted on day 28 of the dosing phase. Samples for PG toxicokinetics were collected on days 1, 14, 21, and 25 of the dosing-phase. On days 1, 14, and 21 samples were collected: predose and approximately 1, 2, 3, 4, 6, 8, 12, and 24 h postdose. Days 25: predose and approximately 1, 2, 3, 4, 6, 8, 10, and 24 h postdose. […] NGAL was measured using an ELISA method and normalized to urine creatinine. Blood samples for standard clinical chemistry parameters, including creatinine and urea nitrogen, were collected from fasted dogs twice prior to the predose phase and before daily dose administration on Days 7, 14, and 21 of the dosing phase, as well as on the day of scheduled necropsy; samples were measured on a clinical chemistry analyzer using a validated method.

SMILES | GSH levels at high concentrations (human RPTECs) | Plasma exposure, humans compared with dogs [2] | further results
O=C(O)c1cc(O)c(O)c(O)c1 [GA, Gallic acid] | reduction of GSH levels | comparable between the two species | Log P [1]: 0.91; GSH levels at high concentrations (dog RPTECs): reduction of GSH levels
COc1c(O)cc(C(=O)O)cc1O [Group 4OMGA, 4-O-methyl gallic acid] | – | comparable between the two species | –
C[C@H](CCC(=O)[O-])[C@H]1CC[C@H]2[C@@H]3[C@H](O)C[C@@H]4C[C@H](O)CC[C@]4(C)[C@H]3CC[C@]12C.[Na+] [NaCDC, sodium chenodeoxycholate] | – | – | Urine NGAL levels (urine NGAL): did not induce elevations in NGAL levels
O=C(O)c1cc(O)c(O)c(OC2OC(C(=O)O)C(O)C(O)C2O)c1 (centres unmarked) [GA-3-Gluc, gallic acid-3-glucoronide] | – | lower exposure | –
CCCOC(=O)c1cc(O)c(OC)c(O)c1 [Group 4OMPG, 4-O-methyl propyl gallate, reference compound] | increases of GSH | – | –
